Where a SMILES comes first, the peptide text is derived from it. Bridges are numbered along the chain shown (N, C = ends). Triazole bridges read from a SMILES are 1,4-linked. [ ]: non-standard residue; d: D form. ξ: configuration not given here. pY = N[C@@H](Cc1ccc(OP(=O)(O)O)cc1)C(=O)O; Lys(N3) = [N-]=[N+]=NCCCC[C@H](N)C(=O)O; Thr(3ξ) = CC(O)[C@H](N)C(=O)O; Pra = C#CC[C@H](N)C(=O)O
Target: T1, Signal transducer and activator of transcription 3 [127-722] (Mus musculus, UniProt P42227)
T1 construct: 127-722
Experiment: Fluorescence-Polarization-Based Binding Assay
Conditions: pH 7.5; 22 °C
Text: Fluorescence polarization (FP) binding assay is utilizing the intrinsic property of the fluorescent probe, which will have low polarization value when free in solution. On binding to a target, the polarization of the probe will increase.

T1 sequence (P42227 127-722): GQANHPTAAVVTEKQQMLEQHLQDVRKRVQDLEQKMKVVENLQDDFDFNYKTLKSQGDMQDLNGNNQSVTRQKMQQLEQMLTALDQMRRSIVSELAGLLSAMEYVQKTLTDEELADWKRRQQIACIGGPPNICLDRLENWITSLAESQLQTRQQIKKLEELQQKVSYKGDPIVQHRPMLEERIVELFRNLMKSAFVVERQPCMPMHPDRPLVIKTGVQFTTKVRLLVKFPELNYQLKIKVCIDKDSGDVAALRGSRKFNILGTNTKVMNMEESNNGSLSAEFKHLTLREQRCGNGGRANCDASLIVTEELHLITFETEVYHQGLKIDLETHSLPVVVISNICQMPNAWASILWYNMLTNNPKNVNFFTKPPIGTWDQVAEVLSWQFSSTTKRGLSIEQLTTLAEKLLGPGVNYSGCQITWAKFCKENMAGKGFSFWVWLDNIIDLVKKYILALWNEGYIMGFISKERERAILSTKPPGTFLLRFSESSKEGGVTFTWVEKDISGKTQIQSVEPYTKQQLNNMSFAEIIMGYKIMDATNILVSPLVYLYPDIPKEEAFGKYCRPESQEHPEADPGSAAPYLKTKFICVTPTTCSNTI

| Structure (SMILES) | Ki |
| --- | --- |
| CC(=O)N[C@@H](Cc1ccc(OP(=O)(O)O)cc1)C(=O)N[C@@H](CC(C)C)C(=O)N[C@H]1CCCCn2cc(nn2)C[C@@H](C(=O)N[C@@H](Cc2ccccc2)C(N)=O)NC(=O)[C@H](C(C)O)NC1=O (stereo partly drawn) [4-[(2S)-2-{[(1S)-1-{[(6S,9S,12S)-12-{[(1S)-1-carbamoyl-2-phenylethyl]carbamoyl}-9-[(1R)-1-hydroxyethyl]-7,10-dioxo-1,8,11,15,16-pentaazabicyclo[12.2.1]heptadeca-14(17),15-dien-6-yl]carbamoyl}-3-methylbutyl]carbamoyl}-2-acetamidoethyl]phenoxyphosphonic acid] (Ac-[pY]L[Lys(N3)][Thr(3ξ)][Pra]F-NH2; triazole 3-5) | 7.3 µM |
| CC(=O)N[C@@H](Cc1ccc(OP(=O)(O)O)cc1)C(=O)N[C@@H](CC(C)C)C(=O)N[C@@H](CCCCN)C(=O)N[C@H](C(=O)N[C@@H](CCCCN)C(=O)N[C@@H](Cc1ccccc1)C(N)=O)C(C)O (stereo partly drawn) [4-[(2S)-2-{[(1S)-1-{[(1S)-5-amino-1-{[(1S,2R)-1-{[(1S)-5-amino-1-{[(1S)-1-carbamoyl-2-phenylethyl]carbamoyl}pentyl]carbamoyl}-2-hydroxypropyl]carbamoyl}pentyl]carbamoyl}-3-methylbutyl]carbamoyl}-2-acetamidoethyl]phenoxyphosphonic acid] (HELM PEPTIDE1{[ac].[O=C([C@H](Cc1ccc(OP(=O)(O)O)cc1)N[*:1])[*:2]].L.K.[CC(O)[C@H](N[*:1])C(=O)[*:2]].K.F.[am]}$$$$V2.0) | 25.9 µM |

Source: BindingDB's records for doi:10.1016/j.bmcl.2007.04.096 (University of Michigan, 2007)
